Where “and” joins values, the source holds several entries; their conditions need not be identical. Equal entries are not always repeated. One block for each molecule: values may come before it.
What was measured:
[1] = biological target: T1, human recombinant adrenergic α2B receptor (Homo sapiens, UniProt P18089); experiment: Radioligand binding, adrenergic α2B ([3H]Rauwolscine); settings: for Percentage inhibition of ligand binding, Adrenergic α2B (0.03 μM): repeat datapoints each shown; for inhibition at 0.03 µM: read-out: Percentage inhibition of ligand binding, Adrenergic α2B (0.03 μM), compound at 0.03 μM, repeat datapoints each shown
T1 construct: expressed in transfected cells; host or cells: CHO-K1
T1 sequence (P18089 1-450): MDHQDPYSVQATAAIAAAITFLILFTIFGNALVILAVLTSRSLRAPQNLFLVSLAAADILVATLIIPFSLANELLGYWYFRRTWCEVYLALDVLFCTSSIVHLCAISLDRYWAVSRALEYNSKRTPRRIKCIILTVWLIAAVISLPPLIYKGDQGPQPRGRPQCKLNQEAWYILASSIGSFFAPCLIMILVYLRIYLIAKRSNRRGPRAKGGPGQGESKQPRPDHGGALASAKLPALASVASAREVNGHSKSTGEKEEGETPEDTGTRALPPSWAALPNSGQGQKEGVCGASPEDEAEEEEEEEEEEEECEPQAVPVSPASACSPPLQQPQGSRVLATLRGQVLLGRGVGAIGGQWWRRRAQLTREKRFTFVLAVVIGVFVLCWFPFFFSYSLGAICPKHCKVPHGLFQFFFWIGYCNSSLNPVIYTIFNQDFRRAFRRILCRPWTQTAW
Experimental: To evaluate in radioligand binding assays the activity of compounds of the invention, human recombinant adrenergic α2B receptor expressed in Chinese hamster ovary (CHO) K1 cells (Uhlen, S. et al, Eur. J. Pharmacol. 343(1):93, 1998) in a modified Tris-HCl buffer (50 mM Tris-HCl, pH 7.4, 12.5 mM MgCl2, 1 mM EDTA, 0.2% BSA) was used. Compounds of the invention were incubated with 2.5 nM [3H]Rauwolscine for 60 min at 25° C. Non-specific binding was estimated in the presence of 10 μM Prazosin. Receptor proteins were filtered and washed, the filters were then counted to determine [3H]Rauwolscine specifically bound. […] Compounds of the invention were tested in this biochemical assay and percent inhibition of specific binding was determined. Biochemical assay results are presented as the percent inhibition of specific binding in Table B1.

[2] = biological target: T2, rat adrenergic α1B receptor (Rattus norvegicus, UniProt P15823); experiment: Radioligand binding, adrenergic α1B ([3H]Prazosin); parameters: species or system Wistar Rat; settings: for Percentage inhibition of ligand binding, Adrenergic α1B (0.1 μM): repeat datapoints each shown
T2 construct: rat adrenergic α1B receptor obtained from Wistar Rat liver; from tissue; host or cells: Wistar rat liver
T2 sequence (P15823 1-515): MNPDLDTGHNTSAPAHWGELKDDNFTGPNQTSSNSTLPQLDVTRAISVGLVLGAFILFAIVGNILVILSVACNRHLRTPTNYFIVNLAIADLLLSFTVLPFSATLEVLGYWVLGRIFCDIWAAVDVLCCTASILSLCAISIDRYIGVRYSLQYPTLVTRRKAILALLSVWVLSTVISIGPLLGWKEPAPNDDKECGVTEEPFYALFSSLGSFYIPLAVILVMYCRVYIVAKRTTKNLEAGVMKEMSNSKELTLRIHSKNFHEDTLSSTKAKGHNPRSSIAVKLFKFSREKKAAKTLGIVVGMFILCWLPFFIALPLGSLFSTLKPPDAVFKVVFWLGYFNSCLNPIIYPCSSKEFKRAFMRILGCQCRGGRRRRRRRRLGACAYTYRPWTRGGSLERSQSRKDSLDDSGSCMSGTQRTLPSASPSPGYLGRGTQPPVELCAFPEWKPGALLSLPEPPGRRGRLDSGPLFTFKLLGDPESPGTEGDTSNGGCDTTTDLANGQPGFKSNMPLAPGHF
Experimental: To evaluate in radioligand binding assays the activity of compounds of the invention, rat adrenergic α1B receptor obtained from Wistar Rat liver (Garcia-S'ainz, J. et al, Biochem. Biophys. Res. Commun. 186:760, 1992; Michel, A. et al, Br. J. Pharmacol. 98:883, 1989) in a modified Tris-HCl buffer (50 mM Tris-HCl buffer, pH 7.4, 0.5 mM EDTA) was used. Compounds of the invention were incubated with 0.25 nM [^3H]Prazosin for 60 min at 25° C. Non-specific binding was estimated in the presence of 10 μM phentolamine. Receptor proteins were filtered and washed, the filters were then counted to determine [^3H]Prazosin specifically bound. […] Compounds of the invention were tested in this biochemical assay and percent inhibition of specific binding was determined. Biochemical assay results are presented as the percent inhibition of specific binding in Table B1.

[3] = biological target: T3, human recombinant adrenergic α2A receptor (Homo sapiens, UniProt P08913); experiment: Radioligand binding, adrenergic α2A ([3H]MK-912); settings: for inhibition at 0.1 µM: read-out: Percentage inhibition of ligand binding, Adrenergic α2A (0.1 μM), compound at 0.1 μM
T3 construct: expressed in transfected cells; host or cells: insect Sf9 cells
T3 sequence (P08913 1-465): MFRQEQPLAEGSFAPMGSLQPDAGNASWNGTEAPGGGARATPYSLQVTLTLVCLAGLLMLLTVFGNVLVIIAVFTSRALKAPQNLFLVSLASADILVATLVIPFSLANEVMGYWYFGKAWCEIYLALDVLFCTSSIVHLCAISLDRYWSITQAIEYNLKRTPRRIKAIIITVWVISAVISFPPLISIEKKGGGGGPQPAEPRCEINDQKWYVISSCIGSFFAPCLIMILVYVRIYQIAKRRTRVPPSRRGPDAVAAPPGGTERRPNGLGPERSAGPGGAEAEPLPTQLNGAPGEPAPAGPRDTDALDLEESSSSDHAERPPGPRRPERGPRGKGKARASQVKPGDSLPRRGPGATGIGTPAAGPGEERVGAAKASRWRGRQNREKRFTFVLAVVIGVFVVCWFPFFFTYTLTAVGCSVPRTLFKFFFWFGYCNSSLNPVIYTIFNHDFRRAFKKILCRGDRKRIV
Experimental: To evaluate in radioligand binding assays the activity of compounds of the invention, human recombinant adrenergic α2A receptor expressed in insect Sf9 cells (Uhlen, S. et al, J. Pharmacol. Exp. Ther. 271:1558, 1994) in a modified Tris-HCl buffer (50 mM Tris-HCl, pH 7.4, 12.5 mM MgCl2, 2 mM EDTA) was used. Compounds of invention were incubated with 1 nM [^3H]MK-912 for 60 min at 25° C. MK912 is (2S-trans)-1,3,4,5′,6,6′,7,12b-octahydro-1′,3′-dimethyl-spiro[2H-benzofuro[2,3-a]quinolizine-2,4′(1′H)-pyrimidin]-2′(3′H)-one hydrochloride. Non-specific binding was estimated in the presence of 10 μM WB-4101 (2-(2,6-Dimethoxyphenoxyethyl)aminomethyl-1,4-benzodioxane hydrochloride). Receptor proteins were filtered and washed, the filters were then counted to determine [^3H]MK-912 specifically bound. […] Compounds of the invention were tested in this biochemical assay and percent inhibition of specific binding was determined. Biochemical assay results are presented as the percent inhibition of specific binding in Table B1.

[4] = 0.1 μM compound, [3H]MK-912, 0.1 µM
[5] = [3H]MK-912, repeat datapoints each shown
[6] = compound at 0.1 μM, [3H]MK-912, 0.1 µM
[7] = compound at 0.1 μM, [3H]MK-912, repeat datapoints each shown, 0.1 µM

Percentage inhibition of ligand binding, Adrenergic α2B (0.03 μM) ([1]; compound at 0.03 μM, 0.03 µM): 75% | Percentage inhibition of ligand binding, Adrenergic α1B (0.1 μM) ([2]; compound at 0.1 μM, 0.1 µM): 12%
Molecule: Cc1ccc2c(c1)c1c(n2CC(OC(=O)C(N)C(C)C)c2ccncc2)CCN(C)C1 (single isomer, unassigned) [25b]

Percentage inhibition of ligand binding, Adrenergic α2B ([1]; 0.03 μM compound, 0.03 µM): 27% | Percentage inhibition of ligand binding, Adrenergic α2A [3, 4]: 61%
Molecule: C/C(=C\n1c2c(c3cc(C)ccc31)C1CCCCN1CC2)c1ccc(F)cc1 (single isomer, unassigned) [199b]

Percentage inhibition of ligand binding, Adrenergic α2B ([1]; 0.03 μM compound): 43% | Percentage inhibition of ligand binding, Adrenergic α2B ([1]; 0.1 μM compound): 74%
Molecule: Cc1ccc2c(c1)c1c(n2C(C)C(O)c2ccncc2)CCN(C)C1 (single isomer, unassigned) [127a]

inhibition at 0.03 µM [1]: 106%
Molecule: CN1CCc2c(c3cc(Cl)ccc3n2CC(O)c2ccncc2)C1 (stereo not shown) [compound 4]

Percentage inhibition of ligand binding, Adrenergic α2B ([1]; compound at 0.03 μM, 0.03 µM): 100%
Molecule: Cc1ccc2c(c1)c1c(n2CC(N)c2ccncc2)CCN2CCCC12 (single isomer, unassigned) [II-4b, 2-(9-methyl-1,2,3,4,5,10c-hexahydro-3a,6-diaza-cyclopenta[c]fluoren-6-yl)-1-pyridin-4-yl-ethylamine]

Percentage inhibition of ligand binding, Adrenergic α2B (0.03 μM) ([1]; compound at 0.03 μM, 0.03 µM): 54% | Percentage inhibition of ligand binding, Adrenergic α1B (0.1 μM) ([2]; compound at 0.1 μM, 0.1 µM): 4%
Molecule: Cc1ccc2c(c1)c1c(n2CC(OC(=O)C(N)C(C)C)c2ccncc2)CCN(C)C1 (single isomer, unassigned) [25a]

Percentage inhibition of ligand binding, Adrenergic α2B ([1]; compound at 0.03 μM, 0.03 µM): 79%
Molecule: Cc1ccc2c(c1)c1c(n2CC(N)c2ccncc2)CCN2CCCC12 (single isomer, unassigned) [II-4a, 2-(9-methyl-1,2,3,4,5,10c-hexahydro-3a,6-diaza-cyclopenta[c]fluoren-6-yl)-1-pyridin-4-yl-ethylamine]

inhibition at 0.03 µM [1]: 45% | inhibition at 0.1 µM [3, 5]: 24%
Molecule: CN1CCc2c(n(CC(O)c3ccncc3)c3ccc(Cl)cc23)C1 (stereo not shown) [compound 41]

inhibition at 0.03 µM [1]: 88% | inhibition at 0.1 µM [3, 5]: 36%
Molecule: Cc1ccc2c(c1)c1c(n2CC(N=[N+]=[N-])c2ccncc2)CCN(C)C1 (racemic) [V-1a, 5-(2-azido-2-(pyridin-4-yl)ethyl)-2,3,4,5-tetrahydro-2,8-dimethyl-1H-pyrido[4,3-b]indole]

Percentage inhibition of ligand binding, Adrenergic α2B (0.03 μM) ([1]; compound at 0.03 μM, 0.03 µM): 4%
Molecule: Cc1cnc2c(c1)c1c(n2CCc2ccc(C)nc2)CCN2CCCCC12 (single isomer, unassigned) [IV-8a]

inhibition at 0.03 µM [1]: 61%
Molecule: Cc1ccc2c(c1)c1c(n2CC(O)c2ccncc2)CN(C)CC1 (stereo not shown) [compound 8]

Percentage inhibition of ligand binding, Adrenergic α2A ([3]; compound at 0.1 μM, [3H]MK-912): 12% | Percentage inhibition of ligand binding, Adrenergic α1B ([2]; compound at 0.1 μM): 33%
Molecule: Cc1ccc2c(c1)c1c(n2C(C)C(O)c2ccncc2)CCN(C)C1 (stereo not shown) [II-98a]

Percentage inhibition of ligand binding, Adrenergic α2A [3, 6]: 37% | Percentage inhibition of ligand binding, Adrenergic α1B ([2]; compound at 0.1 μM): 13%
Molecule: CN1CCc2c(n(CC(O)c3ccc(F)c(F)c3)c3ccc(Cl)cc23)CC1 (single isomer, unassigned) [339a]

Percentage inhibition of ligand binding, Adrenergic α2B ([1]; 0.03 μM compound, 0.03 µM): 69% | Percentage inhibition of ligand binding, Adrenergic α2A [3, 4]: 21%
Molecule: Cc1cnc2c(c1)c1c(n2CC(O)c2ccc(F)cc2)CCN(C)C1 (single isomer, unassigned) [136b]

Percentage inhibition of ligand binding, Adrenergic α2B ([1]; compound at 0.03 μM, 0.03 µM): 8% | Percentage inhibition of ligand binding, Adrenergic α2A [3, 6]: 0%
Molecule: OCCN1CCc2c(c3cc(Cl)ccc3n2CC(O)c2cccnc2)C1 (single isomer, unassigned) [II-94a]

Percentage inhibition of ligand binding, Adrenergic α2B ([1]; 0.03 μM compound, 0.03 µM): 94% | Percentage inhibition of ligand binding, Adrenergic α2A [3, 4]: 96%
Molecule: C/C(=C\n1c2c(c3cc(C)ccc31)C1CCCCN1CC2)c1ccc(F)cc1 (single isomer, unassigned) [199a]

Percentage inhibition of ligand binding, Adrenergic α2A (0.1 μM) [3, 7]: 29% | Percentage inhibition of ligand binding, Adrenergic α1B (0.1 μM) ([2]; compound at 0.1 μM, 0.1 µM): 11%
Molecule: CCC(O)(Cn1c2c(c3cc(C)ccc31)CN(C)CC2)c1ccc(F)cc1 (single isomer, unassigned) [34a]

inhibition at 0.03 µM [1]: 56% | inhibition at 0.1 µM [3, 5]: -1%
Molecule: Cc1ccc2c(c1)c1c(n2CC(O)c2ccncc2)C(C)N2CCC1C2 (stereo not shown) [compound 38]

Percentage inhibition of ligand binding, Adrenergic α2B ([1]; 0.03 μM compound, 0.03 µM): 11% | Percentage inhibition of ligand binding, Adrenergic α2A [3, 4]: −11%
Molecule: Cc1cnc2c(c1)c1c(n2CC(C)(O)c2ccc(C)nc2)CCN2CCCC12 (single isomer, unassigned) [148d]

Ki ([1]; CHO-K1, repeat assays each datapoint shown): 0.22 nM | Percentage inhibition of ligand binding, Adrenergic α2B (0.03 μM) ([1]; compound at 0.03 μM, 0.03 µM): 100% and 103% | Ki ([3]; [3H]MK-912, Sf9, repeat assays each datapoint shown): 9.18 nM | Percentage inhibition of ligand binding, Adrenergic α2A (0.03 μM) ([3]; compound at 0.03 μM, [3H]MK-912, repeat datapoints each shown): 54% | Percentage inhibition of ligand binding, Adrenergic α2A (0.1 μM) [3, 7]: 80% and 85%
Molecule: 2-(4-fluoro-phenyl)-1-(9-methyl-1,2,3,4,5,10c-hexahydro-3a,6-diaza-cyclopenta[c]fluoren-6-yl)-propan-2-ol [II-121b]

Percentage inhibition of ligand binding, Adrenergic α2B ([1]; compound at 0.03 μM, 0.03 µM): 12% | Percentage inhibition of ligand binding, Adrenergic α2A [3, 6]: 7%
Molecule: Cc1cnc2c(c1)c1c(n2CC(O)c2ccc(C)nc2)CCN(C)C1 (single isomer, unassigned) [II-100a]

Percentage inhibition of ligand binding, Adrenergic α2A [3, 4]: 55% | Percentage inhibition of ligand binding, Adrenergic α1B ([2]; 0.1 μM compound, 0.1 µM): 69%
Molecule: Cc1ccc2c(c1)c1c(n2CC(O)c2ccncc2)CCN2CCCC12 (single isomer, unassigned) [129b]

Percentage inhibition of ligand binding, Adrenergic α2B ([1]; compound at 0.03 μM): 5%
Molecule: Cc1ccc2c(c1)c1c(n2C(C)C(O)c2ccncc2)CCN(C)C1 (stereo not shown) [II-98b]
